Measurements reported in patent publication US4898863A, “Heterocyclic carboxamides” (ICI Americas Inc., priority 1986, dated 1990).

Legend:
leukotriene LTD4 = test: in vivo guinea-pig aerosol test (leukotriene LTD4 challenge, time of onset of breathing changes); conditions: Cavia porcellus, oral, read-out: effective dose following oral administration
[1] = overt toxicity / untoward side-effects in dosed laboratory animals; format: in vivo, guinea-pig

COc1cc(C(=O)NS(=O)(=O)c2ccccc2C)ccc1Cn1cc(CCC(=O)N2CCCC2)c2ccc(C(=O)NCC3CCCC3)cc21 [Example 8, N-[4-[6-(N-Cyclopentylmethylcarbamoyl)-3-[2-(pyrrolidinocarbonyl)ethyl]indol-1-ylmethyl]-3-methoxybenzoyl]-2-methylbenzesulphonamide]
minimal effective dose (leukotriene LTD4): 2000 µmol/kg | oral dose showing no sign of overt toxicity [1]: 30 mmol/kg
